Laboratory results taken from US20110224186A1, “CARBACEPHEM BETA-LACTAM ANTIBIOTICS” (Achaogen, Inc., priority 2008, published 2011).
Values after ≈ are worked out from the molar mass of the structure shown.

Legend:
Experiment in all cases: MIC assay, broth microdilution in CAMHB
Assay type in all cases: cell-based
[1] = tested on: S. aureus ASAU1028 (CA-MRSA, USA400); settings: 2% NaCl, 16-20 h at 35° C.; for MIC: Staphylococcus aureus, read-out: MIC ASAU 1028
Method: (§1) The in vitro MIC for bacterial isolates may be obtained in the following manner: a test compound is incorporated into a series of two-fold dilutions in cation adjusted Mueller-Hinton broth (CAMHB). Different bacterial strains diluted to provide a uniform inoculum are added to the CAMHB containing test compounds. A well without test compound is included for each strain as a growth control. […] The procedures used in these experiments are generally those standardized by the Clinical and Laboratory Standards Institute (CLSI), as set forth in the CLSI publication entitled “M7-A7. Methods for dilution antimicrobial susceptibility tests for bacteria that grow aerobically; approved standard-seventh edition.” (2006), which is incorporated by reference as if fully set forth herein. The following exemplifies such a procedure although it is to be understood that modifications of the procedure may be implemented as required.
(§2) Two-fold dilutions of the test compounds are prepared in CAMHB at 2× the concentration range to be tested if the compounds are soluble in aqueous solution. Alternately, dimethylsulfoxide (DMSO) is used to prepare two-fold dilutions at 10× the concentration range to be tested. Reference drugs such as cefotaxime, vancomycin or imipenem are used as positive controls. A few isolated colonies are retrieved from a pure culture prepared on an agar plate and suspended in PBS until the turbidity of the suspension matches a 0.5 McFarland standard which is equal to approximately 10^8 CFU/mL. This solution is further diluted in CAMHB to 10^6 CFU/mL if compounds are diluted in CAMHB and 5×10^5 CFU/mL if compounds are diluted in DMSO. The CAMHB plates containing the compound dilutions are combined in equal volumes with the higher density inoculum, or 10 μL of the DMSO dilutions are added to the lower density inoculum. When S. aureus is the organism being tested and the compound is oxacillin, a beta-lactam or a carbacephem compound of the present invention, 2% NaCl is added to the growth media. The plates are then incubated for 16-20 h at 35° C. The plates are then observed to determine which concentration of the test compound is the MIC.

[2] = tested on: S. aureus ASAU001 (Susceptible Organism ATCC 29213); settings: 16-20 h at 35° C.; for MIC: Staphylococcus aureus, ATCC29213, 2% NaCl, read-out: MIC ASAU 001
Method: as §1, §2

[3] = tested on: S. aureus ASAU002 (MRSA ATCC 33591); settings: 2% NaCl, 16-20 h at 35° C.; for MIC: Staphylococcus aureus, read-out: MIC ASAU 002
Method: as §1, §2

[4] = tested on: S. aureus ASAU1043 (MRSA, CIP, ERY, CLI, GEN resistant); settings: 2% NaCl, 16-20 h at 35° C.; for MIC: Staphylococcus aureus, read-out: MIC ASAU 1043
Method: as §1, §2

[5] = tested on: S. aureus ASAU1033 (MRSA, CIP, ERY, CLIN, TET, GEN resistant); settings: 2% NaCl, 16-20 h at 35° C.; for MIC: Staphylococcus aureus, read-out: MIC ASAU 1033
Method: as §1, §2

[6] = tested on: S. aureus ASAU1029 (CA-MRSA, USA300); settings: 2% NaCl, 16-20 h at 35° C.; for MIC: Staphylococcus aureus, read-out: MIC ASAU 1029
Method: as §1, §2

| Structure (SMILES) | MIC [1] [mg/L] | MIC [2] [mg/L] | MIC [3] [mg/L] | MIC [4] [mg/L] | MIC [5] [mg/L] | MIC [6] [mg/L] | MIC ASAU 1028 [1] | MIC ASAU 001 ([2]; 2% NaCl) | MIC ASAU 002 [3] | MIC ASAU 1043 [4] | MIC ASAU 1033 [5] | MIC ASAU 1029 [6] |
| --- | --- | --- | --- | --- | --- | --- | --- | --- | --- | --- | --- | --- |
| Nc1nc(/C(=N/O)C(=O)N[C@@H]2C(=O)N3C(C(=O)O)=C(SCc4ccncc4)CC[C@H]23)c(Cl)s1 [Example 17, (6R,7S,Z)-7-(2-(2-amino-5-chlorothiazol-4-yl)-2-(hydroxyimino)acetamido)-8-oxo-3-(pyridin-4-ylmethylthio)-1-aza-bicyclo[4.2.0]oct-2-ene-2-carboxylic acid] | 1 to 8 (≈ 1.96 to 15.7 µM) | ≤ 1 | > 8 | > 8 | > 8 | 1 to 8 (≈ 1.96 to 15.7 µM) | – | – | – | – | – | – |
| CNc1nnc(SCSC2=C(C(=O)O)N3C(=O)[C@@H](NC(=O)/C(=N\O)c4nc(N)sc4Cl)[C@H]3CC2)s1 [Example 25, (6R,7S,Z)-7-(2-(2-amino-5-chlorothiazol-4-yl)-2-(hydroxyimino)acetamido)-3-((5-(methylamino)-1,3,4-thiadiazol-2-ylthio)methylthio)-8-oxo-1-aza-bicyclo[4.2.0]oct-2-ene-2-carboxylic acid] | 1 to 8 (≈ 1.73 to 13.9 µM) | ≤ 1 | 1 to 8 (≈ 1.73 to 13.9 µM) | > 8 | > 8 | 1 to 8 (≈ 1.73 to 13.9 µM) | – | – | – | – | – | – |
| Nc1nc(/C(=N/O)C(=O)N[C@@H]2C(=O)N3C(C(=O)O)=C(SCSc4nncs4)CC[C@H]23)c(Cl)s1 [Example 23, (6R,7S,Z)-3-((1,3,4-thiadiazol-2-ylthio)methylthio)-7-(2-(2-amino-5-chlorothiazol-4-yl)-2-(hydroxyimino)acetamido)-8-oxo-1-aza-bicyclo[4.2.0]oct-2-ene-2-carboxylic acid] | 1 to 8 (≈ 1.82 to 14.6 µM) | ≤ 1 | 1 to 8 (≈ 1.82 to 14.6 µM) | > 8 | > 8 | 1 to 8 (≈ 1.82 to 14.6 µM) | – | – | – | – | – | – |
| Nc1nc(/C(=N\O)C(=O)NC2C(=O)N3C(C(=O)O)=C(/C=C4\CCN(C5CCNC5)C4=O)CS[C@H]23)ns1 (stereo partly drawn) [Comparative Compound 1, reference compound] | ≤ 1 | ≤ 1 | 1 to 8 (≈ 1.87 to 15 µM) | 1 to 8 (≈ 1.87 to 15 µM) | 1 to 8 (≈ 1.87 to 15 µM) | ≤ 1 | – | – | – | – | – | – |
| Cc1ncsc1/C=C\C1=C(C(=O)O)N2C(=O)[C@@H](NC(=O)/C(=N\O)c3nc(N)sc3Cl)[C@H]2CC1 [Example 29, (6R,7S)-7-((Z)-2-(2-amino-5-chlorothiazol-4-yl)-2-(hydroxyimino)acetamido)-3-((Z)-2-(4-methylthiazol-5-yl)vinyl)-8-oxo-1-aza-bicyclo[4.2.0]oct-2-ene-2-carboxylic acid] | ≤ 1 | ≤ 1 | 1 to 8 (≈ 1.96 to 15.7 µM) | 1 to 8 (≈ 1.96 to 15.7 µM) | 1 to 8 (≈ 1.96 to 15.7 µM) | ≤ 1 | – | – | – | – | – | – |
| Nc1nc(/C(=N/O)C(=O)N[C@@H]2C(=O)N3C(C(=O)O)=C(/C=C4\CCN([C@@H]5CCNC5)C4=O)CC[C@H]23)c(Cl)s1 [Example 34, (6R,7S)-7-((Z)-2-(2-amino-5-chlorothiazol-4-yl)-2-(hydroxyimino)acetamido)-8-oxo-3-((E)-((R)-2-oxo-1,3′-bipyrrolidin-3-ylidene)methyl)-1-aza-bicyclo[4.2.0]oct-2-ene-2-carboxylic acid] | 1 to 8 (≈ 1.82 to 14.5 µM) | ≤ 1 | 1 to 8 (≈ 1.82 to 14.5 µM) | 1 to 8 (≈ 1.82 to 14.5 µM) | 1 to 8 (≈ 1.82 to 14.5 µM) | ≤ 1 | – | – | – | – | – | – |
| Nc1nc(/C(=N/O)C(=O)N[C@@H]2C(=O)N3C(C(=O)O)=C(SCc4cn[nH]c4)CC[C@H]23)c(Cl)s1 [Example 27, (6R,7S,Z)-3-((1H-pyrazol-4-yl)methylthio)-7-(2-(2-amino-5-chlorothiazol-4-yl)-2-(hydroxyimino)acetamido)-8-oxo-1-aza-bicyclo[4.2.0]oct-2-ene-2-carboxylic acid] | 1 to 8 (≈ 2.01 to 16.1 µM) | ≤ 1 | 1 to 8 (≈ 2.01 to 16.1 µM) | > 8 | > 8 | 1 to 8 (≈ 2.01 to 16.1 µM) | – | – | – | – | – | – |
| Nc1nnc(SC2=C(C(=O)O)N3C(=O)[C@@H](NC(=O)/C(=N\O)c4nc(N)sc4Cl)[C@H]3CC2)s1 [Comparative Compound 2, reference compound] | 1 to 8 (≈ 1.93 to 15.5 µM) | ≤ 1 | ≤ 1 | 1 to 8 (≈ 1.93 to 15.5 µM) | 1 to 8 (≈ 1.93 to 15.5 µM) | 1 to 8 (≈ 1.93 to 15.5 µM) | – | – | – | – | – | – |
| Cc1ncsc1/C=C\C1=C(C(=O)O)N2C(=O)[C@@H](NC(=O)/C(=N\O)c3nc(N)sc3Cl)[C@H]2CC1 [Example 31, (6R,7S)-7-((Z)-2-(2-amino-5-chlorothiazol-4-yl)-2-(hydroxyimino)acetamido)-3-((Z)-2-(4-methylthiazol-5-yl)vinyl)-8-oxo-1-aza-bicyclo[4.2.0]oct-2-ene-2-carboxylic acid] | – | – | – | – | – | – | B (MIC's of greater than 1.0 μg/mL to 8.0 μg/mL = B) | A (MIC's of 1.0 μg/mL or less = A) | B (MIC's of greater than 1.0 μg/mL to 8.0 μg/mL = B) | B (MIC's of greater than 1.0 μg/mL to 8.0 μg/mL = B) | B (MIC's of greater than 1.0 μg/mL to 8.0 μg/mL = B) | B (MIC's of greater than 1.0 μg/mL to 8.0 μg/mL = B) |
| Nc1nc(/C(=N/O)C(=O)N[C@@H]2C(=O)N3C(C(=O)O)=C(SCc4ccccc4)CC[C@H]23)c(Cl)s1 [Example 18, (6R,7S,Z)-7-(2-(2-amino-5-chlorothiazol-4-yl)-2-(hydroxyimino)acetamido)-3-(benzylthio)-8-oxo-1-aza-bicyclo[4.2.0]oct-2-ene-2-carboxylic acid] | ≤ 1 | ≤ 1 | ≤ 1 | 1 to 8 (≈ 1.97 to 15.7 µM) | 1 to 8 (≈ 1.97 to 15.7 µM) | ≤ 1 | – | – | – | – | – | – |
